The text below walks through data of publication PMC9413739, “Tri- and Pentacyclic Azaphenothiazine as Pro-Apoptotic Agents in Lung Carcinoma with a Protective Potential to Healthy Cell Lines” (Molecules, 2022).

Each structure is given as a SMILES string. “And” between values parts separate entries of the source, which are not always exact repeats. Equal entries are not always repeated. Where only a bound is given, the exact number is not on record here.

For one series, the system named is normal heart H9C2 cells. The arrangement: method as in PMID 29123378. The conditions noted are these: cited from earlier work.
The test system of series [1] is human lung carcinoma A549 and non-small lung carcinoma H1299. Nature of the series: MTT viability assay, summary over lung carcinoma lines. The format is cell-based. The conditions noted are these: range over DPT-1 and DPT-2 in A549 and H1299. The source says:
DPT-1 and DPT-2 initiated a biological response in the investigated cancer models with a different mechanism and at a different rate. Based on these findings, it can be concluded that DPT-1 and DPT-2 have potential as chemotherapeutic agents.
(§1) Examination of cytotoxicity using MTT assay is the most convenient and fastest method for screening of cytotoxic action of the drugs. MTT assay is a colorimetric method for evaluation of cell viability based on mitochondrial dehydrogenase enzyme activity. The survival rate of the cells was calculated relative to the control cells, grown in standard conditions. Using this assay, IC50 values were calculated for each cell line treated with standard compounds and drugs. For […] assay, cells were seeded in 96-well plates at 1 × 10^4 cells/well in 0.2 mL completed medium 24 h before drug treatment. In the next step, cells were incubated for 72 h with the compounds (doses: 100; 50; 25; 12.5; 6.25; 3.15 and 1.56 µM) and then were washed three times with PBS (PAA, Laboratories GmbH, Cölbe, Germany). […] The levels of absorbance were measured at a wavelength of λ = 570 nm using a microplate spectrophotometer (Epoch; BioTek, Winooski, VT, USA) and expressed as a % of the untreated control, named the survival fraction [SF] […]
For orientation: Tetrazolium assays rely on reduction of a dye to a coloured formazan, in cell work by metabolically active cells.

Series [2] deals with H1299 cells. Nature of the series: Cell cycle analysis via flow cytometry, H1299. The format is cell-based, human. The conditions noted are these: H1299, 50 µM, 72 h. How it is done: (§2) Many drugs work by inhibiting cell proliferation and causing cell cycle blockage. Using flow cytometry, the impact of new compounds on the cell cycle were determined. Cells incubated with compound were also analyzed for cellular death pathways, apoptosis induction, followed by Annexin-V assay. Annexin-V is a protein that binds phosphatidylserine and allows early detection of apoptosis; additionally, iodium propide staining distinguishes it from necrosis. For apoptosis and cell cycle assays the cell cultures were plated in 6-well plates at a confluence of 1 × 10^5 in 2 mL of completed fresh DMEM-F12 medium, 24 h before drugs addition. An Aria III flow cytometer (Becton Dickinson; Franklin Lakes, NJ, USA) was used. The flow cytometry analysis was done on a free Flowing Software 2.5.1 program (by Perttu Terho, the Cell Imaging and Cytometry Core, Turku Bioscience Centre, Turku, Finland, with the support of Biocenter Finland).
(In general: A flow cytometer gives signals particle by particle.)

Series [3] deals with A549 cells. Nature of the series: Live Cell Analyzer microscopic observation, A549. Format: cell-based, human. The note with it: 72 h; for survival fraction in comparison to the untreated controls: A549, 50 µM, images; for morphological observation: A549, 100 µM. An excerpt:
(§3) The cells stayed mostly unattached and floating with some shrunken, which indicates a late stage of apoptosis and necrosis. Using cancer cell lines A549 and H1299, the cellular apoptotic and necrotic death was confirmed, followed by cell cycle cytometric analysis for the sub-G1 fraction (please compare Figure 4 and Figure 5). […] Such observations additionally explained the results of Annexin-V apoptosis assays, where some of the cells, mainly carcinomas, presented an early apoptosis fraction (Figure 6, Figure 7 and Figure 8).
(§4) Microscopic observation and images acquisition with Live Cell Analyzer (JuLI™ Br; NanoEnTek Inc., Seoul, Korea) was used to directly observe on-plate confluence, density, and cell viability and images acquisitions.

Series [4] concerns A549 cells. Nature of the series: Cell cycle analysis via flow cytometry, A549. Format: cell-based, human. The note with it: A549, 50 µM, 72 h. How it is done:
A lowered viability, followed by the MTT assay, could be a perfect indicator of the anticancer potential of drugs. However, this procedure measures the mitochondrial activity of the enzymatic complex. The real cytotoxicity against the antiproliferative action of drugs could be distinguished using the next step procedure, a cytometric cell cycle distribution, compared to the untreated controls. For that reason, the cell cycle was measured, followed by 72 h of incubation with DPT-1 and DPT-2. High doses of phenothiazines (50 µM) arrested the cell cycle at different phases, dependent on the cancer cell line. […] The phenomenon of sub-G1 phase reduction (lowered necrotic/apoptotic and general dead cells fraction), in comparison to the untreated control, could be explained by the cytostatic potential of phenothiazines. […] The MTT estimations of cells viability, calculated from the lowered absorbance, resulted from the antiproliferative and cytostatic role of DPT-1 and DPT-2 in the A549 cell line for S and G2/M cell cycle phases.
Many drugs work by inhibiting cell proliferation and causing cell cycle blockage. Using flow cytometry, the impact of new compounds on the cell cycle were determined. Cells incubated with compound were also analyzed for cellular death pathways, apoptosis induction, followed by Annexin-V assay. […]

The next series has as its system BEAS-2B. The experiment in a line: MTT viability assay, BEAS-2B. The conditions noted are these: Homo sapiens, 72 h of incubation, mean of three experiments ± SD. The format is cell-based. As to the method: (§5) A standard anticancer drug, such as doxorubicin, was simultaneously used at the same concentrations range: 100, 50, 25, 12.5, 6.25, 3.15, 1.56 µM.
(§6) Biological experiments were conducted on a panel of cancer cell lines, adenocarcinoma human alveolar basal epithelial cells (A549), and human non-small cell lung carcinoma cell line (H1299). In order to determine the potential side effects of treatments, research was performed simultaneously on the human bronchial epithelial cells (BEAS-2B) and normal human dermal fibroblasts (NHDF); all cells received were received from the ATCC collections (Manassas, VA, USA). Cells were grown in DMEM F-12 medium (PAA, Warsaw, Poland) supplemented with 10% (v/v) heat-inactivated FBS (Eurx, Gdańsk, Poland) and 100 units/mL penicillin and 100 μg/mL streptomycin (Sigma-Aldrich, Darmstadt, Germany) at 37 °C in a humidified atmosphere with 5% CO2 [23, 27, 29].
as §1

Another series deals with H1299. The experiment in a line: MTT viability assay, H1299. The note with it: Homo sapiens, NCI-H1299, H1299, 72 h of incubation, mean of three experiments ± SD. The format is cell-based. How it is done: as §5, §6, §1
Series [5] has as its system normal kidney HEK293 cells. Details: method as in PMID 29123378. The note with it: cited from earlier work.
The test system of series [6] is normal fibroblast HFF-1 cell line. Details: method as in PMID 26950280. The note with it: cited from earlier work.
The subject of the next series is A549. Nature of the series: MTT viability assay, A549. Format: cell-based. The conditions noted are these: Homo sapiens, A549, 72 h of incubation, mean of three experiments ± SD. How it is done:
as §5, §6, §1

In another series the test system is NHDF. The experiment in a line: MTT viability assay, NHDF. Format: cell-based. The note with it: Homo sapiens, 72 h of incubation, mean of three experiments ± SD. How it is done:
as §5, §6, §1

For series [7], the system named is A2780 ovarian cancer cells. The arrangement: method as in PMID 29123378. The note with it: A2780, dose-dependent inhibition; cited from earlier work.
The test system of series [8] is glioblastoma SNB-19, melanoma C-32, and breast cancer MCF-7 cell lines. Details: method as in PMID 26950280. The note with it: SNB-19, C-32 and MCF-7 cell lines; cited from earlier work.
A further series concerns BEAS-2B cells. Nature of the series: Live Cell Analyzer microscopic observation, BEAS-2B. The format is cell-based, human. The conditions noted are these: 72 h; for survival fraction in comparison to the untreated controls: 50 µM, images; for morphological observation: 100 µM.
Excerpt: as §3, §4

Series [9] concerns H1299 cells. Nature of the series: Annexin-V apoptosis assay with PI staining, H1299. The conditions noted are these: H1299, 50 µM, 72 h. The format is cell-based, human. As to the method:
(§7) Followed by Annexin-V apoptosis assay after 72 h of incubation with DPT-1 and DPT-2 at a dose of 50 µM, the type of cellular death is possible to determine (Figure 6 and Figure 7). […] After 72 h of incubation of cells in both controls, some of the early and late apoptotic cells were observable, without necrotic ones.
as §2

Series [10] concerns A549 cells. Nature of the series: Annexin-V apoptosis assay with PI staining, A549. The note with it: 72 h; for type of cellular death at lower doses: A549, 0.78–12.5 µM; for type of cellular death at higher doses: A549, 25–100 µM. Format: cell-based, human. As to the method:
as §7, §2

Series [11] has as its system glioblastoma SNB-19, colorectal carcinoma Caco-2, breast cancer MDA-MB-231, and lung cancer A549 cell lines. Details: method as in PMID 30981160. The conditions noted are these: range over SNB-19, Caco-2, MDA-MB-231 and A549; cited from earlier work.
In series [12] the test system is normal human dermal fibroblasts NHDF. Details: method as in PMID 30981160. The conditions noted are these: cited from earlier work.

Take `c1cnc2c(c1)Nc1ccncc1S2` [DPT-1, 10H-3,6-diazaphenothiazine]: the “cytotoxicity compared with A2780” value (in the series with normal heart H9C2 cells; in series [5]) was “significantly less cytotoxicity” in each case. The half-maximal inhibitory concentration (IC50) in [1] is 1.52 to 12.9 µM; with BEAS-2B it was 2.468 ± 0.01 µM; with H1299 it was 2.515 ± 0.005 µM; in the series on A549 it was 1.526 ± 0.004 µM; in the series with NHDF, 2.246 ± 0.01 µM; in series [7], 0.62 µM. In addition, in [8], the half-inhibitory concentration (IC50) is 0.46 µg/mL and 0.72 µg/mL. Also, in the series on H1299 cells [2], the cell cycle effect entry is “cell cycle is stopped in the G0/G1-phase”. For the same compound, the “survival fraction in comparison to the untreated controls” value in the series with A549 cells [3] and in the series on BEAS-2B cells was 5–30% each time. For the same compound, the morphological observation result with A549 cells [3] and in the series on BEAS-2B cells was “typical morphological changes for cellular death” throughout. Besides, the cell cycle arrest entry in the series on A549 cells [4] was “S and G2/M arrest”. For the same compound, the “action against normal cells” value in [6] is “non-toxic action”. Besides, the “cells apoptotic (late apoptotic fraction, Annexin-V+/PI+)” value with H1299 cells [9] was approximately 90%; with A549 cells [10] (A549, 50 µM) it was approximately 90%. For the same compound, the “type of cellular death” value with H1299 cells [9] is reported as “pro-apoptotic activity”; in the series on A549 cells [10] (A549, 50 µM) it was “pro-apoptotic activity”. Further, the “type of cellular death at lower doses” value with A549 cells [10] is “necrosis is visible”. In addition, the “type of cellular death at higher doses” value in the series on A549 cells [10] is “induced cellular death via an apoptosis pathway”.
Regarding `CN(C)CCCN1c2cnc3ccccc3c2Sc2cc3ccccc3nc21` [DPT-2, 7-(3′-dimethylaminopropyl)diquinothiazine], the IC50 is 0.3 to 3.44 µM in series [11]; 1.52 to 12.9 µM in series [1]; 11.26 ± 0.038 µM in the series with BEAS-2B; 12.89 ± 0.013 µM in the series on H1299; 3.45 ± 0.054 µM in the series on A549; 18.77 ± 0.038 µM in the series on NHDF. Further, the cell cycle effect result with H1299 cells [2] is on record as “strong cytotoxic effect”. Also, the “survival fraction in comparison to the untreated controls” value with A549 cells [3] and in the series on BEAS-2B cells was 5–30% throughout. The morphological observation result in the series on A549 cells [3] and in the series with BEAS-2B cells was “typical morphological changes for cellular death” throughout. Also, the cell cycle arrest entry with A549 cells [4] is “S and G2/M arrest”. The “cytotoxicity against normal cells” value in series [12] is recorded as “low cytotoxicity”. Besides, the “tested population necrotic (Annexin-V−/PI+)” value in the series on H1299 cells [9] is “circa 30%”; with A549 cells [10] (A549, 50 µM) it was “circa 30%”. Moreover, the “type of cellular death” value with H1299 cells [9] was “induced apoptosis, as well as necrosis”; in the series with A549 cells [10] (A549, 50 µM), “induced apoptosis, as well as necrosis”. Besides, the “type of cellular death at lower doses” value in the series on A549 cells [10] was “induced early apoptosis”. In the series on A549 cells [10], the “type of cellular death at higher doses” value is “induced toxic, necrotic death”.
As to `COc1cccc2c1C(=O)c1c(O)c3c(c(O)c1C2=O)C[C@@](O)(C(=O)CO)C[C@@H]3O[C@H]1C[C@H](N)[C@H](O)[C@H](C)O1` [doxorubicin, reference compound], the IC50 with BEAS-2B is less than 1.56 µM; with H1299 it was 7.749 ± 0.004 µM; in the series with A549, 5.289 ± 0.004 µM; in the series on NHDF, more than 100 µM.

Broadly, the IC50 is the point on the concentration scale where inhibition reaches its midpoint.
